Test results taken from patent US8614333B2, “Acenaphtho heterocyclic compound and application thereof” (Dalian University of Technology, priority 2010, dated 2013).
pIC50: −log10 of the molar value. “And” between values parts separate entries of the source, which are not always exact repeats. Equal values may be shown once.

How the values were obtained:
[1] = target: T1, interaction between Bcl-2 and Bax (Homo sapiens, UniProt P10415); assay: Intracellular FRET, Bcl-2-CFP/Bax-YFP in Hela cells; assay type: cell-based; settings: for Time (time period after which the interaction between Bcl-2 and Bax was interfered): at the concentration given
T1 construct: expressed in transfected cells; host or cells: Hela cells
T1 sequence (P10415 whole entry): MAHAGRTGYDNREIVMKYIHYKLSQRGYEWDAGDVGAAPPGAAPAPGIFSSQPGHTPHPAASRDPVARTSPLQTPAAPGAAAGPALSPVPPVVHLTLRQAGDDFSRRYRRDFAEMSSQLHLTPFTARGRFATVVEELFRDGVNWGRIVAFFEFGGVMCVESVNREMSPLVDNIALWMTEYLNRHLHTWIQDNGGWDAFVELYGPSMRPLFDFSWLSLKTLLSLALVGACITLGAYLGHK
Procedure: 2 μg of Bcl-2-CFP and Bax-YFP plasmids were transfected separately or simultaneously into Hela cells by using calcium phosphate coprecipitation method, 24 hours later, the cells were inoculated in a 6-well plate (2×10^5 cells/well), and the compound 1 to be detected dissolved in DMSO was added there into until the final concentration (2, 5, 10 and 15 μM) was achieved. 24 hours later (please refer to FIG. 5); the cells were washed with PBS for three times. The fluorescence value was detected by GENIOS fluorescence enzyme-labelled meter (TECAN, Swiss). In time-dependent experiment, the transfected cells were inoculated in a 6-well plate, after that, 40 μM of the compound was added thereinto. 3, 6 and 24 hours later (FIG. 6), the fluorescence intensities were detected by plate reader. As for the cell group in which only Bcl-2-CFP plasmid was transfected, the values at 475 nm emission wave length and 433 nm excitation wave length were recorded. As for the cell group in which only Bax-YFP plasmid was transfected, the values at 527 nm emission wave length and 505 nm excitation wave length were recorded. As for the cell group in which Bcl-2-CFP and Bax-YFP plasmids were co-transfected, the values at 527 nm and 475 emission wave lengths and 433 nm excitation wave length were recorded. The ratio of fluorescence intensity at 527 nm and 475 nm emission wave lengths was FRET. The FRET for the control group in which the plasmid was solely transfected was set as 1.0. […] In the cotransfected cells, the FRET increased up to 2.0 due to the interaction of Bcl-2 protein and Bax protein, and that the interference to the interaction between the two proteins increased and FRET decreased with the increase of the drug concentration and time. The cellular vitality was detected by MTT method. When the concentration of the compound reached 1 μM, the interaction between Bcl-2 and Bax can be interfered after 2 hours, and the results appeared concentration-time dependent trend.
Wherein the concentration and time meant that the detected compound interfered with the interaction between Bcl-2 and Bax at the concentration for the time period.

[2] = test system: Mcl-1; assay: Western blotting, semiquantitative analysis of Mcl-1 protein bands; assay type: cell-based; settings: tumor cells; for concentration of the protein bands (semiquantitative, normalized), Mcl-1: control = 1
Procedure: (§1) The interest protein was detected by the corresponding antibody. The expression of the interest protein in the cells was detected by horseradish peroxidase-labeled secondary antibodies in combination with ECL coloration method. […] The concentration of the protein bands in the Western images were carried out semiquantitative analysis and normalization treatment with KODAK Gel Logic 1500 imaging system software.

[3] = test system: Bcl-2; assay: Western blotting, semiquantitative analysis of Bcl-2 protein bands; assay type: cell-based; settings: tumor cells; for concentration of the protein bands (semiquantitative, normalized), Bcl-2: control = 1
Procedure: as §1

[4] = target: Bcl-2 protein (Homo sapiens, UniProt P10415); assay: ELISA assay, competitive binding to Bcl-2 protein (biotin-Bim/streptavidin plate); settings: method calculates average IC50, read-out: Bcl-2 binding constants
Bcl-2 protein, sequence (P10415 whole entry, species assumed): as the sequence (P10415 whole entry) above
Procedure: (§2) The present inventors used fluorescence polarization assay to detect the bonding force between the protein and the compounds in a previous study (PCT/CN2010/075521). […] ELISA assay was used to detect the bonding force between the compounds and the protein in this application.
(§3) Biotinylated Bim peptide was diluted to 0.09 μg/mL in SuperBlock blocking buffer in PBS and incubated for 1.5 h in 96-well microtiter plates already coated with streptavidin to allow the formation of the complex between Biotin-Bim and streptavidin. All incubations were performed at room temperature unless otherwise noted. Each inhibitor was first dissolved in pure DMSO to obtain a 10 mM stock solution. For each tested inhibitor, different concentrations of the inhibitor were incubated with 20 nM His-tagged Mcl-1 protein in PBS for 1 h with a final DMSO concentration of 4%. The plates were washed three times with PBS containing 0.05% Tween-20. The inhibitor and protein mixture (100 μL) were transferred to the plate containing the biotin-Bim/streptavidin complex and incubated for 2 h. The plate was then washed as before and mouse anti-His antibody that conjugated with horseradish peroxidase was added into the wells and incubated for 1 h. The plate was then washed with PBS containing 0.05% Tween-20. Finally, TMB was added to each well; the enzymatic reaction was stopped after 30 min by addition of H2SO4 (100 μL, 2M). Absorbances were measured with a TECAN GENios (Swiss, TECAN) microplate reader using a wavelength of 450 nm. Three independent experiments were performed with each inhibitor to calculate average IC50 value and standard deviation (SD).
(§4) The BH3 analogous degrees of other 11 compounds were detected by using the experimental method as described above. The protein binding constant (binding constant in table 1) between them and Bcl-2 and Mcl-1 proteins were also on nM grade.

[5] = target: His-tagged Mcl-1 protein (Homo sapiens, UniProt Q07820); assay: ELISA assay, competitive binding to Mcl-1 protein (biotin-Bim/streptavidin plate); settings: 20 nM His-tagged Mcl-1, method calculates average IC50, read-out: Mcl-1 binding constants
His-tagged Mcl-1 protein, sequence (Q07820 whole entry): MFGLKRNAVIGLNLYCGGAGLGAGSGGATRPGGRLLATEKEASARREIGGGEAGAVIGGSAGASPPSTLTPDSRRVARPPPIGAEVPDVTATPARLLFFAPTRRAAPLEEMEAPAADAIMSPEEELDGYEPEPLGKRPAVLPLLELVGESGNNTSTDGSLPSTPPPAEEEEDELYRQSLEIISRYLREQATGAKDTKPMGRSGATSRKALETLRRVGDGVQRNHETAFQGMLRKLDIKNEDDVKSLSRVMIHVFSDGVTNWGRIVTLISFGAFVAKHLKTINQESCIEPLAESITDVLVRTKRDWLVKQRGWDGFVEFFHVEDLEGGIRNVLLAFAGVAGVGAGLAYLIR
Procedure: as §2, §3, §4

[6] = test system: BAX shift towards the chondriosome; assay: Co-localization between Bax protein and chondriosome, Bax-YFP in MCF-7 cells; assay type: cell-based; settings: for Doses (concentration at which the compound drove the BAX to shift towards the chondriosome): Bax-YFP/Mito Tracker Red; for Time (time period after which BAX shifted towards the chondriosome): at the concentration given
Procedure: 5 μg of Bax-YFP plasmid was transfected into MCF-7 cells by using calcium phosphate coprecipitation method, 24 hours later, the cells were inoculated in a 6-well plate (0.2×10^6 cells/well), and 10 μM of the compound 1 to be detected was added thereinto. 6 hours later, the cells were washed with PBS and hatched away from light with 50 nM Mito Tracker Red CMXRos (chondriosome specific probes; red) for 10 minutes. Then the cells were washed with PBS for three times, and the fluorescent image was scanned with Radiance2000 laser confocal microscopy (Bio-Rad, USA). Meanwhile, dual channel scanning was carried out, one channel was used to scan the green fluorescence of Bax-YFP, and the other channel was used to scan the red fluorescence of the CMXRos probe for indicating the chondriosome. […] When the Bax protein was localized on the chondriosome, the green and red fluorescence was superimposed into orange, as shown in FIG. 7.
Other 24 compounds were detected by the same experimental method as described above. […] Wherein the concentration and time meant that the detected compound simulated the BH3-only protein and driven the BAX to shift towards the chondriosome at the concentration for the time period.

[7] = test system: MCF-7 cells transfected with BAX/BAK interfering plasmid; assay: Cytotoxicity by MTT, cells transfected with BAX/BAK interfering plasmid; assay type: cell-based; settings: for pIC50: Homo sapiens, MCF7, MCF-7 with BAX/BAK interfering plasmid, MTT, 48 hours
Procedure: (§5) 3 μg of BAX/BAK interfering plasmid was transfected into MCF-7 cells by using calcium phosphate coprecipitation method, 24 hours later, the cells were collected. The expressions after the BAX and BAK proteins interfered with RNA was detected by Western, and the cell groups without plasmid transfection were treated similarly and were set as the control group. The transfected cells were inoculated in a 96-well plate (1×10^5 cells/well), the control experiment of the cell group without plasmid transfection was carried out in parallel. The compound 1 to be detected was added thereinto according to the concentration gradient designed before the experiment. 48 hours later, the cellular vitality was detected by MTT. The experimental results were shown in FIG. 9, Gossypol as nonspecific BH3 analogue was treated in parallel.
(§6) Other 24 compounds were also detected by the same experimental method as described above, the differences of IC50 values between the transfected cells and the without plasmid transfection cells were compared.

[8] = test system: MCF-7 cells; assay: Cytotoxicity by MTT, cells without plasmid transfection; assay type: cell-based; settings: Homo sapiens, MCF7; MCF-7, MTT, 48 hours; read-out: IC50 value in untransfected cells
Procedure: as §5, §6

| Doses (concentration at which the compound interfered with the interaction between Bcl-2 and Bax) [1] | Time (time period after which the interaction between Bcl-2 and Bax was interfered) [1] [h] | melting point [°C] | pIC50 [4] | pIC50 [5] | SMILES | concentration of the protein bands (semiquantitative, normalized), Mcl-1 ([2]; 2 h) | concentration of the protein bands (semiquantitative, normalized), Mcl-1 ([2]; 6 h) | concentration of the protein bands (semiquantitative, normalized), Bcl-2 ([3]; 6 h) | concentration of the protein bands (semiquantitative, normalized), Bcl-2 ([3]; 12 h) | concentration of the protein bands (semiquantitative, normalized), Bcl-2 ([3]; 18 h) | concentration of the protein bands (semiquantitative, normalized), Bcl-2 ([3]; 24 h) | Doses (concentration at which the compound drove the BAX to shift towards the chondriosome) [6] [µM] | Time (time period after which BAX shifted towards the chondriosome) [6] [h] | pIC50 [7] | pIC50 [8] | inhibition against Mcl-1 (in words) ([2]; Western blotting) | inhibition against Bcl-2 (in words) ([3]; Western blotting) | dependence of cytotoxicity on BAX/BAK ([7]; comparison of transfected and untransfected MCF-7 cells) |
| --- | --- | --- | --- | --- | --- | --- | --- | --- | --- | --- | --- | --- | --- | --- | --- | --- | --- | --- |
| 1 µM and 1.0 µM | 2 | – | 6.85 | 7.31 | CCCCNC1=C2C(=NC1=O)c1cccc3cccc2c13 [Compound 1, 9-n-Butylamino-8H-acenaphtho[1,2-b]pyrrol-8-one] | 0.79 | 0.35 | 0.99 | 0.99 | 0.58 | 0.21 | 1.0 | 3 | < 4.30 | 5.40 | had the inhibition against these two proteins | had the inhibition against these two proteins | absolute dependence on BAX/BAK |
| 2.0 µM | 5 | 245 to 246 | 7.35 | 7.18 | CCCCN(C)C1=C2C(=NC1=O)c1cccc3cccc2c13 [Compound 6, 9-(Butyl-methyl-amino)-acenaphtho[1,2-b]pyrrol-8-one] | – | – | – | – | – | – | 4.0 | 4 | < 4.30 | 5.40 | – | – | – |
| 0.3 µM | 3 | 245 to 246 | 7.18 | 7.85 | CCCCNC1=C2C(=NC1=O)c1cccc3c(Sc4ccc(Br)cc4)ccc2c13 [Compound 7, 3-(4-Bromo-phenylsulfanyl)-9-butylamino-acenaphtho[1,2-b]pyrrol-8-one] | 0.68 | 0.32 | 0.99 | 0.99 | 0.51 | 0.20 | 0.5 | 3 | < 4.30 | 5.92 | – | – | – |
| 2.0 µM | 6 | 262 to 263 | 7.19 | 6.90 | CCCCNC1=C2C(=NC1=O)c1cccc3c(C(=O)c4ccccc4)ccc2c13 [Compound 5, 3-Benzoyl-9-butylamino-acenaphtho[1,2-b]pyrrol-8-one] | – | – | – | – | – | – | 5.0 | 5 | < 4.30 | 5.19 | – | – | – |
| 1.0 µM | 5 | 250 to 251 | 7.46 | 7.02 | CCOc1ccc2c3c(cccc13)C1=NC(=O)C(NCCCc3ccccc3)=C12 [Compound 4, 3-Ethoxy-9-(3-phenyl-propylamino)-acenaphtho[1,2-b]pyrrol-8-one] | – | – | – | – | – | – | 3.0 | 4 | < 4.30 | 5.25 | – | – | – |

| SMILES | Doses (concentration at which the compound interfered with the interaction between Bcl-2 and Bax) [1] | Time (time period after which the interaction between Bcl-2 and Bax was interfered) [1] [h] | melting point [°C] | pIC50 [4] | pIC50 [5] | concentration of the protein bands (semiquantitative, normalized), Mcl-1 ([2]; 2 h) | concentration of the protein bands (semiquantitative, normalized), Mcl-1 ([2]; 6 h) | concentration of the protein bands (semiquantitative, normalized), Bcl-2 ([3]; 6 h) | concentration of the protein bands (semiquantitative, normalized), Bcl-2 ([3]; 12 h) | concentration of the protein bands (semiquantitative, normalized), Bcl-2 ([3]; 18 h) | concentration of the protein bands (semiquantitative, normalized), Bcl-2 ([3]; 24 h) | Doses (concentration at which the compound drove the BAX to shift towards the chondriosome) [6] [µM] | Time (time period after which BAX shifted towards the chondriosome) [6] [h] | pIC50 [7] | pIC50 [8] | inhibition against Mcl-1 (in words) ([2]; Western blotting) | inhibition against Bcl-2 (in words) ([3]; Western blotting) | dependence of cytotoxicity on BAX/BAK ([7]; comparison of transfected and untransfected MCF-7 cells) |
| --- | --- | --- | --- | --- | --- | --- | --- | --- | --- | --- | --- | --- | --- | --- | --- | --- | --- | --- |
| CCCCNC1=C2C(=NC1=O)c1cccc3c(N4CCSCC4)ccc2c13 [Compound 9, 9-Butylamino-3-thiomorpholin-4-yl-acenaphtho[1,2-b]pyrrol-8-one] | 0.4 µM | 2 | 239 to 240 | 7.20 | 7.80 | 0.60 | 0.29 | 0.99 | 0.99 | 0.49 | 0.20 | 0.6 | 3 | < 4.30 | 5.89 | – | – | – |
